From paper PMC9820345, “Metal Complexes of a 5-Nitro-8-Hydroxyquinoline-Proline Hybrid with Enhanced Water Solubility Targeting Multidrug Resistant Cancer Cells” (International Journal of Molecular Sciences, 2022)
Read-outs that look alike come from different tables or passages of the source.

Legend:
[1] = Stability of the isolated complexes in aqueous solution at pH 7.4 (UV-vis over 72 h); assay type: physicochemical
Method: The stability of the isolated RhCp* and RuCym complexes in aqueous solution at pH 7.4 was assayed via recording the UV-vis spectra over 72 h (Figure S18). […] Then, the behaviour of the complexes was monitored between pH 2 and 12 by ^1H NMR spectroscopy (see representative spectra of the RuCym complex in Figure 8) in chloride-free medium, as this halide ion can act as a competitor ligand. There was no indication for the dissociation of the complexes (i.e., liberation of unbound ligand or metal precursor) in the studied pH range or even at pH 1 (Figure S19), showing their fairly high stability in solution.
An Agilent Cary 8454 diode array spectrophotometer (Santa Clara, CA, USA) was used to obtain UV-vis spectra in the wavelength range 200–1000 nm, while spectra were recorded for the Fe(II)-containing samples using an Avantes (Avantes B.V., Apeldoorn, The Nederlands) AvaSpec-ULS2048CL-EVO spectrometer with an AvaLight-DHc light source and FDP-7UVIR200-2-VAR transmission dip probe. The titrations for the Fe(II)-containing samples were performed in a laboratory glove box (GP(Campus), Jacomex) (O2 content ≤ 1 ppm). The path length (ℓ) was 1 cm in most cases (the actual ℓ is always indicated in the legends of the figures). The concentrations of the ligands and complexes were between 40 and 200 µM, and 0.2 M KNO3 for the organometallic complexes or 0.1 M KCl for the Fe(II/III), Cu(II), and Zn(II) complexes were used to adjust the constant ionic strength. For HSA containing samples, complex concentrations were 50 µM, and 0.5, and 2 equiv. biomolecules were added for kinetic studies, respectively. For HSA model containing samples, complex concentrations were 50 µM, and the model concentrations were 0–150 µM and 0–500 µM, respectively, and the pH was 7.4 (PBS’). Spectra were always background and baseline corrected. The computer program HypSpec was used to obtain stability constants. Hydrolysis constants of the Fe(III), Fe(II), RuCym, and RhCp* species were included in the speciation models (see Table S4 with the data taken from References).

[2] = Complex formation kinetics (UV-vis, tandem cuvette); assay type: physicochemical; settings: 50 μM triaqua complex + 50 μM ligand
Method: The complex formation kinetics for the RhCp* and RuCym complexes was also assayed and compared at pH 1 and 4 (Figure S20). UV-vis spectral changes were followed in time after the triaqua complex [M(arene)(H2O)3]^2+ (50 μM) and the ligand (50 μM) were mixed in a tandem cuvette. The equilibrium was reached much faster in the case of the RhCp* complex (~5 min at pH 1, ~1 min at pH 4), as compared to the RuCym complex (~7 h at pH 1, ~45 min at pH 4).

[3] = assay type: physicochemical; settings: for logK' (H2O/Cl−): I = 0.2 M KNO3, 25.0 °C
Method: Spectral changes in the UV-vis spectra (Figure 8c) reveal two transformation processes. […] As chloride ions can efficiently coordinate to these types of half-sandwich organometallic complexes, the water/chloride co-ligand exchange process was also studied by UV-vis spectrophotometry (at pH 7.4 or 6.0), and logK' (H2O/Cl^-) exchange constants were determined (Table 3) based on the spectral changes upon increasing the chloride concentration in the solution. For the RhCp* complex, a higher constant, namely stronger chloride ion affinity, was obtained. […] An Agilent Cary 8454 diode array spectrophotometer (Santa Clara, CA, USA) was used to obtain UV-vis spectra in the wavelength range 200-1000 nm, while spectra were recorded for the Fe(II)-containing samples using an Avantes (Avantes B.V., Apeldoorn, The Nederlands) AvaSpec-ULS2048CL-EVO spectrometer with an AvaLight-DHc light source and […] transmission dip probe. The titrations for the Fe(II)-containing samples were performed in a laboratory glove box (GP(Campus), Jacomex) (O2 content ≤ 1 ppm). The path length (l) was 1 cm in most cases (the actual l is always indicated in the legends of the figures). […] Spectra were always background and baseline corrected. The computer program HypSpec was used to obtain stability constants. Hydrolysis constants of the Fe(III), Fe(II), RuCym, and RhCp* species were included in the speciation models (see Table S4 with the data taken from References).

Ac-Phe-His-Ala-NH2 (FHA) = assay: Mixed-ligand adduct formation with His-containing oligopeptide FHA; assay type: binding
Method: (§1) According to numerous papers on the binding of half-sandwich organometallic complexes to HSA [35, 36], surface exposed histidine (His) side chains are the most feasible coordinating moieties. […] The equilibrium could be reached within 3–10 min in the case of the RhCp* complex on the basis of the UV-vis spectral changes (Figure S28), and similar conditional constants (logK’) were computed with these model compounds for the formation of mixed-ligand RhCp* complexes; namely logK’ 5.00 ± 0.1, 4.4 ± 0.1, 5.1 ± 0.1 were obtained in the case of FHA, AHA, and mim, respectively. […] In the case of the oligopeptides, formation of isomers was detected which might be explained by the existence of two chiral centers, namely the metal ion and His-CHα. The adduct formation of the RuCym complex with mim was quantitative, hindering the determination of the logK’ value (meaning logK’ > 5.5). […]
(§2) An Agilent Cary 8454 diode array spectrophotometer (Santa Clara, CA, USA) was used to obtain UV-vis spectra in the wavelength range 200–1000 nm, while spectra were recorded for the Fe(II)-containing samples using an Avantes (Avantes B.V., Apeldoorn, The Nederlands) AvaSpec-ULS2048CL-EVO spectrometer with an AvaLight-DHc light source and FDP-7UVIR200-2-VAR transmission dip probe. […]

Ac-Ala-His-Ala-NH2 (AHA) = assay: Mixed-ligand adduct formation with His-containing oligopeptide AHA; assay type: binding
Method: as §1, §2

[4] = Mixed-ligand adduct formation with N-methylimidazole; assay type: binding; settings: mim, pH 7.4
Method: as §1, §2

[5] = pH 7.4, 1H NMR peak integrals, 24 h incubation

Row | SMILES | UV-vis spectral changes in aqueous solution ([1]; after 48 h) | UV-vis spectral changes in aqueous solution ([1]; first 24 h) | time to reach equilibrium of complex formation ([2]; pH 1) | time to reach equilibrium of complex formation ([2]; pH 4) | pKa (1) [3] | pKa (2) [3] | logK' (H2O/Cl−) ([3]; pH 7.4) | conditional constant logK' of mixed-ligand complex (Ac-Phe-His-Ala-NH2 (FHA); pH 7.4, UV-vis) | conditional constant logK' of mixed-ligand complex (Ac-Ala-His-Ala-NH2 (AHA); pH 7.4, UV-vis) | conditional constant logK' of mixed-ligand complex ([4]; UV-vis) | logK' (H2O/Cl−) ([3]; pH 6.0) | conditional constant logK' of adduct (Ac-Phe-His-Ala-NH2 (FHA); [5]) | conditional constant logK' of adduct (Ac-Ala-His-Ala-NH2 (AHA); [5]) | conditional constant logK' of adduct ([4]; 1H NMR, 24 h incubation, adduct formation quantitative)
1 | CC1=C(C)[C](C)([Rh]([Cl])[O]c2c(C[NH+]3CCC[C@H]3C(=O)O)cc([N+](=O)[O-])c3cccnc23)C(C)=C1C.[Cl-] [RhCp*-HQNO2-L-Pro, [RhCp*(HQNO2-L-Pro)Cl]Cl] | minor spectral change | no measurable changes | ~ 5 min | ~ 1 min | 9.33 ± 0.03 | 10.34 ± 0.03 | 2.07 ± 0.03 | 5.00 ± 0.1 | 4.4 ± 0.1 | 5.1 ± 0.1 |  |  |  | 
2 | Cc1ccc(C(C)C)cc1.O=C(O)[C@@H]1CCC[NH+]1Cc1cc([N+](=O)[O-])c2ccc[n+]3c2c1[O][Ru-]3[Cl].[Cl-] [RuCym-HQNO2-L-Pro, [RuCym(HQNO2-L-Pro)Cl]Cl] |  | no measurable changes | ~ 7 h | ~ 45 min | 8.55 ± 0.03 | 10.21 ± 0.03 |  |  |  |  | 1.47 ± 0.01 | 3.9 ± 0.2 | 5.1 ± 0.2 | > 5.5
